Reference: patent US20240384350A1, “METHODS OF TREATING CANCER WITH KINASE INHIBITORS” (BOARD OF REGENTS, THE UNIVERSITY OF TEXAS SYSTEM, priority 2021, published 2024)

Key:
Assay in all cases: Ba/F3 drug screening, Cell Titer Glo, IC50 Mut/WT
Format in all cases: cell-based
EGFR L718V = target: T1, EGFR L718V (Homo sapiens, UniProt P00533, L718V); settings: Ba/F3 cells, EGFR L718V (PACC), Mut/WT
T1 construct: expressed in transfected cells; host or cells: Ba/F3

EGFR L858R = target: T2, EGFR L858R (Homo sapiens, UniProt P00533, L858R); settings: Classical-Like, 72 hours
T2 construct: expressed in transfected cells; host or cells: Ba/F3 cells, retroviral pBabe-Puro vector

EGFR S811F = target: T3, EGFR S811F (Homo sapiens, UniProt P00533, S811F); settings: Classical-Like, 72 hours
T3 construct: expressed in transfected cells; host or cells: Ba/F3 cells, retroviral pBabe-Puro vector (vector made by GeneScript from EGFR WT)

EGFR D770insNPG = target: T4, EGFR D770insNPG (Homo sapiens, UniProt P00533, INS770NPG); settings: Ex20, 72 hours
T4 construct: expressed in transfected cells; host or cells: Ba/F3 cells, retroviral pBabe-Puro vector

EGFR N771dupN = target: T5, EGFR N771dupN (Homo sapiens, UniProt P00533, DUP771-771); settings: Ex20, 72 hours
T5 construct: expressed in transfected cells; host or cells: Ba/F3 cells, retroviral pBabe-Puro vector

EGFR L858R L718Q = target: T6, EGFR L858R L718Q (Homo sapiens, UniProt P00533, L718Q/L858R); settings: Ba/F3 cells, EGFR L858R L718Q (PACC), Mut/WT
T6 construct: host or cells: Ba/F3

EGFR Ex19del/C797S = target: T7, EGFR Ex19del/C797S (Homo sapiens, UniProt P00533, C797S/DEL746-750); settings: Ba/F3 cells, EGFR Ex19del/C797S (PACC), Mut/WT
T7 construct: expressed in transfected cells; host or cells: Ba/F3

EGFR L858R/L718V = target: T8, EGFR L858R/L718V (Homo sapiens, UniProt P00533, L718V/L858R); settings: Ba/F3 cells, EGFR L858R/L718V (PACC), Mut/WT
T8 construct: host or cells: Ba/F3

EGFR Ex19del/T790M/L792H = target: T9, EGFR Ex19del/T790M/L792H (Homo sapiens, UniProt P00533, DEL746-750/L792H/T790M); settings: T790M-like-3R, 72 hours
T9 construct: expressed in transfected cells; host or cells: Ba/F3

EGFR R776H = target: T10, EGFR R776H (Homo sapiens, UniProt P00533, R776H); settings: Ba/F3 cells, EGFR R776H (PACC), Mut/WT
T10 construct: host or cells: Ba/F3

EGFR G724S = target: T11, EGFR G724S (Homo sapiens, UniProt P00533, G724S); settings: Ba/F3 cells, EGFR G724S (PACC), Mut/WT
T11 construct: expressed in transfected cells; host or cells: Ba/F3

[1] = target: T12, EGFR L747_K754del insATSPE (Homo sapiens, UniProt P00533, DEL747-749/K754E); settings: T790M-like-3S, 72 hours
T12 construct: expressed in transfected cells; host or cells: Ba/F3 cells, retroviral pBabe-Puro vector

EGFR S768I/V769L = target: T13, EGFR S768I/V769L (Homo sapiens, UniProt P00533, S768I/V769L); settings: Ba/F3 cells, EGFR S768I/V769L (PACC), Mut/WT
T13 construct: host or cells: Ba/F3

EGFR S768I = target: T14, EGFR S768I (Homo sapiens, UniProt P00533, S768I); settings: Ba/F3 cells, EGFR S768I (PACC), Mut/WT
T14 construct: expressed in transfected cells; host or cells: Ba/F3

EGFR L858R/V834L = target: T15, EGFR L858R/V834L (Homo sapiens, UniProt P00533, L858R/V834L); settings: Classical-Like, 72 hours
T15 construct: expressed in transfected cells; host or cells: Ba/F3 cells, retroviral pBabe-Puro vector

EGFR L718Q = target: T16, EGFR L718Q (Homo sapiens, UniProt P00533, L718Q); settings: Ba/F3 cells, EGFR L718Q (PACC), Mut/WT
T16 construct: expressed in transfected cells; host or cells: Ba/F3

EGFR G719A/R776C = target: T17, EGFR G719A/R776C (Homo sapiens, UniProt P00533, G719A/R776C); settings: Ba/F3 cells, EGFR G719A/R776C (PACC), Mut/WT
T17 construct: expressed in transfected cells; host or cells: Ba/F3

EGFR E709K G719S = target: T18, EGFR E709K G719S (Homo sapiens, UniProt P00533, E709K/G719S); settings: Ba/F3 cells, EGFR E709K G719S (PACC), Mut/WT
T18 construct: expressed in transfected cells; host or cells: Ba/F3

EGFR Ex19del T790M L718V = target: T19, EGFR Ex19del T790M L718V (Homo sapiens, UniProt P00533, DEL746-750/L718V/T790M); settings: T790M-like-3S, 72 hours
T19 construct: expressed in transfected cells; host or cells: Ba/F3

EGFR K754E = target: T20, EGFR K754E (Homo sapiens, UniProt P00533, K754E); settings: Classical-Like, 72 hours
T20 construct: expressed in transfected cells; host or cells: Ba/F3 cells, retroviral pBabe-Puro vector

EGFR L858R/T790M = target: T21, EGFR L858R/T790M (Homo sapiens, UniProt P00533, L858R/T790M); settings: T790M-like-3S, 72 hours
T21 construct: expressed in transfected cells; host or cells: Ba/F3

EGFR L858R T790M L792H = target: T22, EGFR L858R T790M L792H (Homo sapiens, UniProt P00533, L792H/L858R/T790M); settings: T790M-like-3S, 72 hours
T22 construct: expressed in transfected cells; host or cells: Ba/F3

EGFR L858R/C797S = target: T23, EGFR L858R/C797S (Homo sapiens, UniProt P00533, C797S/L858R); settings: Ba/F3 cells, EGFR L858R/C797S (PACC), Mut/WT
T23 construct: expressed in transfected cells; host or cells: Ba/F3

EGFR S768I V774M = target: T24, EGFR S768I V774M (Homo sapiens, UniProt P00533, S768I/V774M); settings: Ba/F3 cells, EGFR S768I V774M (PACC), Mut/WT
T24 construct: host or cells: Ba/F3

EGFR G724S T790M = target: T25, EGFR G724S T790M (Homo sapiens, UniProt P00533, G724S/T790M); settings: T790M-like-3R, 72 hours
T25 construct: expressed in transfected cells; host or cells: Ba/F3

EGFR Ex19del/T790M/G724S = target: T26, EGFR Ex19del/T790M/G724S (Homo sapiens, UniProt P00533, DEL746-750/G724S/T790M); settings: T790M-like-3S, 72 hours
T26 construct: expressed in transfected cells; host or cells: Ba/F3

EGFR S768I/T790M = target: T27, EGFR S768I/T790M (Homo sapiens, UniProt P00533, S768I/T790M); settings: T790M-like-3S, 72 hours
T27 construct: expressed in transfected cells; host or cells: Ba/F3

In the case of `C=CC(=O)N[C@H]1C=C(C)c2c(-c3cnc4ccccc4c3)c3c(N)ncnc3n2C1` [TAS 6417], the “ratio of the IC50 value for cells with a PACC EGFR mutation to the IC50 value for cells with wildtype EGFR” value (shortened to “ratio of the IC50 value for cells”) (EGFR L718V) is reported as 0.02378, the “ratio of IC50 for cells with mutant EGFR to IC50 for cells with wildtype EGFR (Mut/WT)” value (“ratio of IC50 for cells with mutant EGFR” for short) (EGFR L858R) is reported as 0.003918 and the “ratio of IC50 for cells with mutant EGFR” value (EGFR S811F) is reported as 0.009026. For the same compound, the “ratio of IC50 for cells with mutant EGFR” value (EGFR D770insNPG) was 0.0168, the “ratio of IC50 for cells with mutant EGFR” value (EGFR N771dupN) was 0.05134 and the “ratio of the IC50 value for cells” value (EGFR L858R L718Q) was 0.0157. For the same compound, the “ratio of the IC50 value for cells” value (EGFR Ex19del/C797S) was 1.093, the “ratio of the IC50 value for cells” value (EGFR L858R/L718V) was 0.01509 and the “ratio of IC50 for cells with mutant EGFR” value (EGFR Ex19del/T790M/L792H) was 0.0002637. The “ratio of the IC50 value for cells” value (EGFR R776H) was 0.09, the “ratio of the IC50 value for cells” value (EGFR G724S) was 3.055 and the “ratio of IC50 for cells with mutant EGFR” value [1] was 0.0004661. For the same compound, the “ratio of the IC50 value for cells” value (EGFR S768I/V769L) was 0.004702, the “ratio of the IC50 value for cells” value (EGFR S768I) was 0.0846 and the “ratio of IC50 for cells with mutant EGFR” value (EGFR L858R/V834L) was 0.0005227. For the same compound, the “ratio of the IC50 value for cells” value (EGFR L718Q) was 0.02239, the “ratio of the IC50 value for cells” value (EGFR G719A/R776C) was 3.055 and the “ratio of the IC50 value for cells” value (EGFR E709K G719S) was 0.007578. For the same compound, the “ratio of IC50 for cells with mutant EGFR” value (EGFR Ex19del T790M L718V) was 0.002884, the “ratio of IC50 for cells with mutant EGFR” value (EGFR K754E) was 0.004475 and the “ratio of IC50 for cells with mutant EGFR” value (EGFR L858R/T790M) was 0.01963. For the same compound, the “ratio of IC50 for cells with mutant EGFR” value (EGFR L858R T790M L792H) was 9.536E−05, the “ratio of the IC50 value for cells” value (EGFR L858R/C797S) was 3.055 and the “ratio of the IC50 value for cells” value (EGFR S768I V774M) was 0.3996. For the same compound, the “ratio of IC50 for cells with mutant EGFR” value (EGFR G724S T790M) was 0.1693, the “ratio of IC50 for cells with mutant EGFR” value (EGFR Ex19del/T790M/G724S) was 0.1997 and the “ratio of IC50 for cells with mutant EGFR” value (EGFR S768I/T790M) was 0.1153.
